Test results from patent publication US10183039B2, “Methods for the production of collagen IV” (Vanderbilt University, priority 2013, dated 2019).
Where two headings read alike, the source gives them in different places.

Columns and labels:
[1] = cited from earlier work
[2] = biological target: T1, human peroxidasin (Homo sapiens, UniProt Q92626); settings: compared with reagent-grade PBS (FIG. 8D)
Experimental: (§1) (FIG. 8A) Matrix pellets isolated from KI-treated PFHR9 cell culture were extensively washed into 10 mM phosphate buffer (pH 7.4) supplemented with 100 mM KF to maintain ionic strength. Potassium salts of Cl— or Br— were added in indicated amounts. 1 hr reactions at 37° C. were initiated by addition of H2O2 to 1 mM and stopped by freezing at −20° C. […] Reagent KCl was commercially obtained and unaltered prior to analysis. 100 mM solutions were made with 18MΩ deionized water. (FIG. 8C) Coomassie blue stained gel of collagenase digested PFHR-9 matrix reaction assay. Reaction buffered contained 10 mM phosphate buffer (pH 7.4), 100 mM Br-Free or Commercially obtained reagent grade KCl, as well as 1 mM H2O2 and 200 μM PHG where appropriate. […] Reactions were run for 10 minutes at 37° C. with 10 μM H2O2 as the terminal oxidant. Dose-response curve run in the presence of 1× Br-Free PBS. Reactions were quenched with 0.2 mg/ml Catalase, 20 mM Methionine, and 1 mM PHG. EC50 value±95% C.I. from two independent experiments with each data point plotted and fit.
(§2) HEK293 cells stably transfected with the human peroxidasin coding sequence27 were grown to confluency, and the medium was changed to serum-free DMEM/F12 plus 5 μM hematin plus 5 mM sodium butyrate. […]

[3] = tested on: Drosophila melanogaster w1118; settings: in vivo
Experimental: FIGS. 11A-C. […] WT Eggs from 3 day Br-depleted and Br-Added females were collected and transferred to new 35 mm culture dishes filled with 3 ml of vitamin and mineral spiked phytagel as the semi-solid support. 100 μL of Yeast paste±100 μM Br—(200 mg yeast/500 μL ddH2O) was added to the center of each dish. Larvae were transferred to fresh dishes and counted every 24-36 hours. WT flies were reared in the presence of 80 mM total Br-Free NaCl. For Br-Added conditions, both the phytagel and yeast paste were spiked with 100 μM NaBr to ensure constant and consistent exposure. Adults were fed identical food as part of the depletion regime. PxnF07229 homozygous larvae were separated from heterozygous larvae and collected 48 hours after hatching on a Br-Free vs Br-Added plates from parents fed a standard diet. After transfer to these fresh Br-experimental diet plates, they were transferred and counted similarly to the WT larvae under normal 20 mM NaCl conditions. The experimental cohorts [Br-Free (n=34), Br-Added (n=40), Br-Free PxnF07229 (n=14), and Br-Added PxnF07229 (n=19)] were followed until death or 2-days after eclosion of the last fly in the cohort. […] Scale bars in the insets represent 200 μm, and in the whole pictures 500 μm. The image of PxnF07229 larvae is from a Br-Added experimental diet. (FIG. 11C) Representative pictures of the corresponding gut dissections to FIG. 11B. Scale bars are 500 μm.
(FIG. 17A) Generational Br-depletion scheme (FIG. 17B). Generation 1 survival and time-to-development curves for w^1118 flies on the standard diet vs experimental diets. Embryos from mothers fed a standard diet were placed on the indicated diet, and progeny were scored every 24 hours. […] Data plotted as the group median±interquartile range. N=30 for each group. […] (FIG. 17C) Generation 2 developmental survival on experimental diets. n>40 for each cohort. Tested by Log-Rank test. (FIG. 17D) Percentage of eggs (mean+/−95% C.I.) completing embryogenesis from mothers reared on Br-free^DEP or Br-added^DEP diets for […]. In the Br-free^DEP experimental group, mothers were fed Br-free synthetic diet containing 80 mM total NaCl (Br-free^DEP) for 3 days prior to egg collection. The Br-added^DEP was treated in the same manner except that 100 μM NaBr was added to all food components of the Br-free^DEP synthetic diet. […] Analyzed by the Mann-Whitney U test. (FIG. 17E) Survival curve for w^1118 flies under Br-free^DEP or Br-added^DEP dietary conditions. […] Associated larval Br-content was measured by EINAA. Bonds/hexamer were calculated from the Western blot. […] BMs from 15 independent sections for each group were evaluated for thickness and the histograms plotted. […]

[4] = biological target: T1, human peroxidasin; assay: biochemical
Experimental: as §1, §2

[5] = tested on: PFHR-9 cells
Experimental: (FIG. 10A) The murine PFHR-9 cell-culture model of basement membranes was cultured for 7 days in the presence of either commercial DMEM+5% FBS or adapted Br-Free DMEM +5% FBS dialyzed against Br-Free HBSS. Media was changed every 24 hours with the addition of 50 μg/ml ascorbic acid and NaBr added where noted. The cell deposited matrix was harvested, collagenase digested, and subjected to SDS-PAGE. NC1 crosslinking content is graphed as the mean±95% C.I. (n=3) with a representative gel depicted.
Bromine was systematically eliminated from DMEM by making the media from individual components without chloride counter ions, and using Br-Free chloride as the only halide source.

[6] = tested on: collagen IV; settings: in vivo
Experimental: Data plotted as the group median±interquartile range. N=30 for each group. […] (FIG. 17F) Western blot of isolated NC1 domain from larvae treated as in (E), probed with an anti-Drosophila NC1 polyclonal antibody (Extended Experimental Methods). Associated larval Br-content was measured by EINAA. Bonds/hexamer were calculated from the Western blot.
In Br-free^DEP conditions, the inventors assessed the impact of Br-deficiency on crosslink formation in vivo. The inventors used vkg^454-GFP flies in which the single collagen IV α2 gene locus contains a GFP insertion near the 7S domain. vkg^454-GFP flies were grown on Br-free^DEP, Br-added^DEP and standard diets and biochemically assayed sulfilamine-bond content via immunoblot.

T1 sequence (Q92626 27-1479): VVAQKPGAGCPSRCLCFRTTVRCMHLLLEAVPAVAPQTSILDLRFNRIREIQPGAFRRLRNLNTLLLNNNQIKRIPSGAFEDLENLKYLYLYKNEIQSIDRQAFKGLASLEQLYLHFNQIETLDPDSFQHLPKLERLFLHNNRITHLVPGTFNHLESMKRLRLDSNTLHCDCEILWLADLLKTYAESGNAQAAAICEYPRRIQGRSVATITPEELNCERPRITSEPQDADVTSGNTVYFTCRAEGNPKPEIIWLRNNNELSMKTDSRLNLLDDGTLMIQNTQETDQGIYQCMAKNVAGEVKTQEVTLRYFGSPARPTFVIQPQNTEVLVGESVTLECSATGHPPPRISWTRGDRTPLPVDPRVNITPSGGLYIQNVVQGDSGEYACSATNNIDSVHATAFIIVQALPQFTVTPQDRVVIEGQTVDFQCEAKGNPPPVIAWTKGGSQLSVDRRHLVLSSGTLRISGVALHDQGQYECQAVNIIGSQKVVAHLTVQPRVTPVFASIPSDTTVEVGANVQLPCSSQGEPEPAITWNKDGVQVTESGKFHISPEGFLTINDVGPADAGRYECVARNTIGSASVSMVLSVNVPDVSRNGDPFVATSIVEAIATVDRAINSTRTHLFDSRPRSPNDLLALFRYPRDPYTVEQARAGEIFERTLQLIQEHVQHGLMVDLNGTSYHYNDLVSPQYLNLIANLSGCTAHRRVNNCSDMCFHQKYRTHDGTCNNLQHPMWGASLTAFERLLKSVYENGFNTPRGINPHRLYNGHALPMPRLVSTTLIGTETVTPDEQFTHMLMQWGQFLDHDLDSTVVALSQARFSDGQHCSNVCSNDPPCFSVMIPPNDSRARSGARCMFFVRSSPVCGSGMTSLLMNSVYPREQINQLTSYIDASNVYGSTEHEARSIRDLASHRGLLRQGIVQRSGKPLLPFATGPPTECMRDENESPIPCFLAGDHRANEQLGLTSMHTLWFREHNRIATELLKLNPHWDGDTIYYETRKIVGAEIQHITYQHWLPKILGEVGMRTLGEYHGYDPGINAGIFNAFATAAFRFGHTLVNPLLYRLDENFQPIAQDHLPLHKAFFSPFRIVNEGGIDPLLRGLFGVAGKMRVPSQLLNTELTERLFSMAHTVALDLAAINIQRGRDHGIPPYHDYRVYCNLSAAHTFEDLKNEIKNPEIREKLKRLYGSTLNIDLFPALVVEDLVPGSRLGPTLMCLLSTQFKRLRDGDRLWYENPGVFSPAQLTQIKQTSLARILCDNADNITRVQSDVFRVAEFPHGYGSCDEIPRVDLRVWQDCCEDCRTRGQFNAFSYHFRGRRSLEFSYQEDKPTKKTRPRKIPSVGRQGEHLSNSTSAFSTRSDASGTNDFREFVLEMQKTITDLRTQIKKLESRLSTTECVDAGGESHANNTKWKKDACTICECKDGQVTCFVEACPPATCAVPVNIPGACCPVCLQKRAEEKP

SMILES: Br [bromide]
- bromide level at which Bromism occurs ([1]; in vivo): > 12 mmol/L
- half-life in the human body ([1]; in vivo): 12 days
- serum bromide level at which toxicity (bromism) occurs [1]: ~12 mM
- serum bromide level at which toxicity (bromism) occurs ([1]; listed as Br^−): > 12 mM
- S═N bond formation on Br addition to Br-Free PBS [2]: recued the degree of S═N bond formation observed in reagent-grade PBS
- Generation 2 larval survival [3]: rescued
- developmental progression of PxnF07229 larvae [3]: unable to promote developmental progression
- median time to eclosion [3]: 10 days
- median time to pupariation [3]: 6 days
- EC50 [4]: 2.7 µM
- S═N crosslinking in the collagen IV matrix [5]: rescued physiologic levels of crosslinking
- cell proliferation, viability, collagen IV synthesis [5]: no observable difference in cell proliferation, viability, or collagen IV synthesis
- sulfilimine-bond content in larvae [6]: rescued
